# Non-standard residues stand in square brackets, D forms with d. Residues, ends and D or L forms follow the SMILES beside them. *: point of attachment. FITC = O=C1OC2(c3ccc(O)cc3Oc3cc(O)ccc32)c2ccc(NC(=S)*)cc21; pY = N[C@@H](Cc1ccc(OP(=O)(O)O)cc1)C(=O)O; pS = N[C@@H](COP(=O)(O)O)C(=O)O; Ahx = NCCCCCC(=O)O
# Target: T1, HTP-2 protein (full length) (Caenorhabditis elegans, UniProt Q95XC8)
# T1 sequence (Q95XC8 1-352): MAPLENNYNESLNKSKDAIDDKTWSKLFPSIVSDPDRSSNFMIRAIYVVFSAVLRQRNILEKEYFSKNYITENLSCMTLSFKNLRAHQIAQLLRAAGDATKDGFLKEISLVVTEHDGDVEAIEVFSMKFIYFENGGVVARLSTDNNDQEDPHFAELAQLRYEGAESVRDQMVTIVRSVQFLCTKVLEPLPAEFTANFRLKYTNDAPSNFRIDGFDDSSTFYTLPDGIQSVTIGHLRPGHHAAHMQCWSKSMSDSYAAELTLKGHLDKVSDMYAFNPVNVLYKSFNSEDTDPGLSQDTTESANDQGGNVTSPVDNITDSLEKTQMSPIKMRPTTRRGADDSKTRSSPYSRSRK
# Assay: Fluorescence polarization (FP) peptide binding assay
# Conditions: for Kd (HTP-2 binding): FP, 50 nM FITC-tagged HIM-3 closure motif peptide, various concentrations of bacterially purified full-length HTP-2, 20 mM Tris pH 7.5, 300 mM NaCl, 10% glycerol, 1 mM DTT, 0.1% NP-40, 1 hour at room temperature, single-site binding model, triplicated measurements
# Excerpt: To understand regulation of meiotic proteins by post-translational modification, we previously carried out mass spectrometry to identify phosphorylated proteins in C. elegans adult hermaphrodites. […] We detected phosphopeptides containing Ser282 either singly or in combination with Ser274, Ser277, or Tyr279, and the most commonly-observed peptide contained doubly-phosphorylated Ser277/Ser282 (Fig 1A and S1 Table). Among the three most C-terminal phosphoresidues, which reside within the conserved closure motif, Tyr279 and Ser or Thr at position 282 are conserved features among nematode HIM-3 orthologs (Fig 1A). […] More recent studies further identified this C-terminus region containing Ser375 to be the closure motif, able to be bound by the HORMA domain of HORMAD1 itself and HORMAD2 [27, 34]. While phosphorylation at the closure motif is conserved between C. elegans HIM-3 and mouse HORMAD1 (S1 Fig), the function is not understood. Since other HORMA family proteins, HTP-1 and -2, are known to bind the HIM-3 closure motif in C. elegans, we first examined if phosphorylation affects HTP-1/2 binding to HIM-3 in vitro. A previous study has shown that both HTP-1 and -2 proteins bind unmodified HIM-3 peptides containing the closure motif in a fluorescence polarization (FP) peptide binding assay. Examination of the crystal structure resolved by the same study led us to predict that phosphorylation at Ser282 would likely interfere with HTP-1/2 binding (Fig 1B). We conducted a similar FP peptide binding assay using purified HTP-2 and fluorescently tagged HIM-3 closure motif peptides containing various modifications (Fig 1C).
# Fig 1 Phosphorylation at the HIM-3 closure motif prevents HTP-1/2 binding in vitro. A, top: Schematic diagram of HIM-3, showing the HORMA domain (magenta) and phosphorylation sites identified by mass spectrometry in red. The conserved closure motif is underlined. bottom: Conservation of the Tyr and Ser/Thr, highlighted in orange, in the closure motif in eight Caenorhabditis species. B, left: Diagram of hierarchical binding of HTP-1, 2, 3 and HIM-3 from. center, diagram of possible multivalent binding modes of the axial element, based on. right, Interactions between the HIM-3 closure motif (magenta) and the HTP-2 (grey) HORMA domain shown in PDB structure 4TZL [27]. C, Fluorescence polarization peptide binding assay using bacterially purified HTP-2 protein (full length) and fluorescently tagged HIM-3 peptides with indicated phosphorylation or Ala substitution. Wild type means HIM-3 peptides with no phosphorylation. Phosphorylation at Ser282 inhibits HTP-2 binding in vitro. Error bars are calculated as the SD from triplicated measurements. […]
# Fluorescein (FITC) conjugated peptides for the FP assay were synthesized by either Scrum Inc. or Eurofins Inc. as shown in S2 Table. […] For the fluorescence assay, synthesized peptides were first resuspended in DMSO, then diluted into binding buffer (20 mM Tris pH 7.5, 300 mM NaCl, 10% glycerol, 1 mM DTT, 0.1% NP-40). Reactions of 50 μl total volume containing 50 nM peptide and various concentrations of HTP-2 proteins were incubated for 1 hour at room temperature, then fluorescence polarization was measured in 384-well plates using a TECAN Infinite M1000 PRO fluorescence plate reader. Binding data were analyzed with Graphpad Prism version 6.0h for Macintosh (GraphPad Software, La Jolla California USA) using a single-site binding model.
Molecule,Kd,Kd (HTP-2 binding)
CC[C@H](C)[C@H](NC(=O)CNC(=O)[C@H](CCC(N)=O)NC(=O)[C@H](CO)NC(=O)[C@H](CC(C)C)NC(=O)CNC(=O)[C@H](Cc1ccc(OP(=O)(O)O)cc1)NC(=O)[C@@H]1CCCN1C(=O)[C@H](CO)NC(=O)[C@H](CC(=O)O)NC(=O)[C@H](CCCNC(=N)N)NC(=O)[C@H](CO)NC(=O)[C@@H](NC(=O)[C@H](CCCNC(=N)N)NC(=O)CCCCCNC(=S)Nc1ccc2c(c1)C(=O)OC21c2ccc(O)cc2Oc2cc(O)ccc21)[C@@H](C)CC)C(=O)N[C@H](C(=O)N[C@@H](CCCCN)C(=O)O)[C@@H](C)O [Y279phos] ({FITC-Ahx}-RISRDSP[pY]GLSQGITK-OH),16.1 µM,–
CC[C@H](C)[C@H](NC(=O)CNC(=O)[C@H](CCC(N)=O)NC(=O)[C@H](C)NC(=O)[C@H](CC(C)C)NC(=O)CNC(=O)[C@H](Cc1ccc(O)cc1)NC(=O)[C@@H]1CCCN1C(=O)[C@H](CO)NC(=O)[C@H](CC(=O)O)NC(=O)[C@H](CCCNC(=N)N)NC(=O)[C@H](CO)NC(=O)[C@@H](NC(=O)[C@H](CCCNC(=N)N)NC(=O)CCCCCNC(=S)Nc1ccc2c(c1)C(=O)OC21c2ccc(O)cc2Oc2cc(O)ccc21)[C@@H](C)CC)C(=O)N[C@H](C(=O)N[C@@H](CCCCN)C(=O)O)[C@@H](C)O [S282A] ({FITC-Ahx}-RISRDSPYGLAQGITK-OH),11.3 µM,–
"{FITC}-[Ahx]RISRDSPYGL[pS]QGITK-OH [S282phos, FITC-tagged HIM-3 closure motif peptide phosphorylated at Ser282]",–,not significant binding
"{FITC}-[Ahx]RISRDSP[pY]GL[pS]QGITK-OH [Y279phos_S282phos, FITC-tagged HIM-3 closure motif peptide phosphorylated at Tyr279 and Ser282]",–,not significant binding
CC[C@H](C)[C@H](NC(=O)CNC(=O)[C@H](CCC(N)=O)NC(=O)[C@H](CO)NC(=O)[C@H](CC(C)C)NC(=O)CNC(=O)[C@H](Cc1ccc(O)cc1)NC(=O)[C@@H]1CCCN1C(=O)[C@H](CO)NC(=O)[C@H](CC(=O)O)NC(=O)[C@H](CCCNC(=N)N)NC(=O)[C@H](CO)NC(=O)[C@@H](NC(=O)[C@H](CCCNC(=N)N)NC(=O)CCCCCNC(=S)Nc1ccc2c(c1)C(=O)OC21c2ccc(O)cc2Oc2cc(O)ccc21)[C@@H](C)CC)C(=O)N[C@H](C(=O)N[C@@H](CCCCN)C(=O)O)[C@@H](C)O [unphosphorylated peptides] ({FITC-Ahx}-RISRDSPYGLSQGITK-OH),5.8 µM,–

# Source: PMC7717579, “Phosphoregulation of HORMA domain protein HIM-3 promotes asymmetric synaptonemal complex disassembly in meiotic prophase in Caenorhabditis elegans” (PLoS Genetics, 2020)
